Here are results for one compound from paper PMC10778198, “First-in-Human Dose-Escalation Study of the Novel Oral Depsipeptide Class I-Targeting HDAC Inhibitor Bocodepsin (OKI-179) in Patients with Advanced Solid Tumors” (Cancers, 2023).

The nature of data set [1]: plasma pharmacokinetics by LC-MS/MS in patients. To be noted: human, plasma, oral, 300 mg, plasma; for AUC(0-t): read-out: AUClast of OKI-179; for Cmax: read-out: Cmax of OKI-179; for Tmax: read-out: Tmax of OKI-179. It counts as in vivo, human. On the procedure: Blood samples were collected immediately prior to the first dose on cycle 1 and day 1, and then at 0.25, 0.5, 1, 2, 4, 8, and 24 h after taking OKI-179 on days 1 and 15. Additional samples were collected pre-dose and 2 and 4 h after OKI-179 administration on day 18 in later cohorts. Blood samples were stabilized with sodium fluoride and formic acid immediately after collection to arrest the additional conversion of the prodrug OKI-179 to OKI-006. Plasma was further stabilized using ascorbic acid prior to low-temperature storage.
Plasma concentrations of OKI-179 and OKI-006 were analyzed using validated liquid chromatography-mass spectrometry (LC-MS/MS) (Quintara Discovery Inc., Hayward, CA, USA). OKI-006 contains a free thiol moiety that can reversibly react with endogenous molecules in the blood and tissue, resulting in “bound” OKI-006. The unreacted OKI-006 is considered “free”. As bound OKI-006 can reversibly convert to free OKI-006 in vivo, both the free and “total” (free plus bound) concentrations of OKI-006 are considered pharmacologically relevant and were therefore quantified as part of this study. Bioanalytically, the total OKI-006 was measured by chemically converting all bound OKI-006 to free OKI-006 prior to analysis using the free OKI-006 bioanalytical method.
The AUClast was calculated from time zero to the time of the last quantifiable concentration for OKI-179, free OKI-006, and total OKI-006.

Data set [2] deals with histone acetylation (Ac-H3K27) in circulating T cells. Put plainly: histone acetylation in circulating T cells (PBMC flow cytometry). The data set is classed as in vivo, human. As to the method:
Blood samples for acetylated (Ac)-H3K27, Ac-H3K9, and Ac-lysine levels in peripheral blood mononuclear cells (PBMCs) were collected in cycle 1. Samples were collected immediately prior to dosing and at 2, 8, and 24 h post-dosing on days 1 and 15. Blood samples were processed within 3 h of collection, and isolated PBMCs were washed and resuspended in cell cell-freezing medium. Cells were stored at ≤−70 °C prior to shipment to the University of Texas at Austin Dell Medical School (UTDMS) for analysis. Briefly, patient PBMCs were thawed at 37 °C for 5 min, washed with flow wash buffer containing PBS/2% FBS/5 mM EDTA, and stained for 30 min on ice with the following: fixable viability dye (BioLegend 423106; Zombie NIR^TM, San Diego, CA, USA), CD3 (Biolegend; Clone OKT3), CD4 (BioLegend; Clone SK3), and CD8 (Biolegend; Clone RPA-T8). All samples were washed twice before being fixed and permeabilized using a BD Biosciences (Hunt Valley, MD, USA) Cytofix/Cytoperm™ kit (RRID: AB_2869008) according to the manufacturer’s protocol and stained for 30 min for intracellular acetylation markers: Ac-H3K27 (Cell Signaling Technology; Clone D5E4), Ac-H3K9 (Cell Signaling Technology, Danvers, MA, USA; Clone CFB11), and total Ac-lysine (BioLegend; Clone 15G10). All cells were analyzed on a Cytek Aurora (5 L 16UV-16V-14B-10YG-8R). Spectral unmixing was performed based on fluorophore-specific single-color cells and compensation bead (ThermoFisher 01-2222-41, Waltham, MA, USA) controls using SpectroFlo© software (v3). All post-acquisition analyses were performed using FlowJo software (v10.3). Results are shown as fold-changes from pre-dose values for each patient and day.
Descriptive statistics were used for baseline characteristics, safety assessments, pharmacokinetic variables, exploratory assessments, and efficacy analysis, including the duration of response and time to progression. Tables were used to summarize the data across the cohort of patients and various dosing groups. Geometric means were used to calculate plasma concentration-time profiles. […]

The mark [3] stands for this setting: 300-mg 5:2, Cycle 1 Day 15, geometric mean.

Where two headings read alike, the source gives them in different places.

Consider `CC(C)[C@H](N)C(=O)SCC/C=C/[C@@H]1CC(=O)NCc2nc(cs2)C(=O)NC(C)(C)C(=O)N[C@@H](C(C)C)C(=O)O1` [OKI-179, Bocodepsin], for which the AUC(0-t) in data set [1] (300 mg 5:2 cohort, mean single-dose) stood at 253 ng·h/mL; in data set [1] (300-mg 5:2, Cycle 1 Day 1, geometric mean), 253 ng·h/mL; in data set [1] (setting [3]), 374 ng·h/mL. The Cmax (in general, the highest concentration seen after dosing) in data set [1] (300-mg 5:2, Cycle 1 Day 1, geometric mean, N=6) is 142 ng/mL; in data set [1] (setting [3]) it was 215 ng/mL. For the same compound, the Tmax (in general, the time at which the peak concentration occurs) in data set [1] (300-mg 5:2, Cycle 1 Day 1, median) was determined as 0.875 h; in data set [1] (300-mg 5:2, Cycle 1 Day 15, median) it was 0.934 h. For the same compound, the half-life is 1.75 h in data set [1] (300-mg 5:2, Cycle 1 Day 1, median, read-out: t1/2 of OKI-179 (converted)); 1.74 h in data set [1] (300-mg 5:2, Cycle 1 Day 15, median, read-out: t1/2 of OKI-179 (converted)); ~1.7 h in data set [1] (day 15, 300 mg 5:2, read-out: terminal half-life (t1/2) of OKI-179 (converted)). Moreover, the “increase in histone acetylation” value in data set [2] (300 mg doses, 2 h after dosing, days 1 and 15, T cells) is on record as 6 fold. Besides, in data set [2] (doses >200 mg), the “increase in H3K27 acetylation in CD4 T cells” value is “greater than 6 fold”. The “increase in H3K27 acetylation in circulating T cells” value in data set [2] (doses of 200 mg or greater) is > 6 fold.
